Experimental findings from patent US12703729B2, “GIP agonist compounds and methods” (Zealand Pharma A/S, priority 2014, dated 2026) are described below.

pEC50: −log10 of the molar value. Starred links: 1 amine or outer side, 2 acyl side, 3 side chain; linkers in the order of their positions; H or OH if unused. Non-standard residues stand in square brackets, D forms with d. Residues, ends and D or L forms follow the SMILES beside them. Groups on a side chain read outwards from the residue. *: point of attachment. X1 = O=C(O)CCCCCCCCCCCCCCCCCCC(=O)N1CCN(CC(=O)*)CC1; C20 diacid = O=C(O)CCCCCCCCCCCCCCCCCCC(=O)*; γGlu = O=C(O)[C@H](CCC(=O)[*:2])N[*:1]; AEEA = NCCOCCOCC(=O)O; Aib = CC(C)(N)C(=O)O

In assay [1] the target is T1, human GIP receptor (GIP R) (Homo sapiens, UniProt P48546).
T1 sequence (P48546 22-466): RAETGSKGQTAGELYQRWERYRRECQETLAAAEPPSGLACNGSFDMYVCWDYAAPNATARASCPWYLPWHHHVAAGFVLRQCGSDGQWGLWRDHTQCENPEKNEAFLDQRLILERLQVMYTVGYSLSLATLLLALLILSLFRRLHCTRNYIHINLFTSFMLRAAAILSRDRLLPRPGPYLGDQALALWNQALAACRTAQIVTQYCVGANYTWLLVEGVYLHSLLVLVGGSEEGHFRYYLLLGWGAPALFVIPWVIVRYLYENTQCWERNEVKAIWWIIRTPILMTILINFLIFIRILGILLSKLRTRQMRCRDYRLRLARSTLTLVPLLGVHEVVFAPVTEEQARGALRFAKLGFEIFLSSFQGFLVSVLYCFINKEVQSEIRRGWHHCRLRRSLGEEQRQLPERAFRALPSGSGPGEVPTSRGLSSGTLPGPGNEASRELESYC
As to the kind of experiment: Activity assay at human GIP receptor, cAMP induction (AlphaScreen), Example 3. Background: In Alpha technology, singlet oxygen from a donor bead excites a nearby acceptor bead.

Another assay concerns the target T2, human GIP R (Homo sapiens, UniProt P48546).
T2 sequence (P48546 22-466): T1 sequence (P48546 22-466)
Nature of the assay: cell-based.

Assay [2] concerns the target human GLP-1 receptor (GLP-1R) (Homo sapiens, UniProt P43220). Nature of the assay: Activity assay at human GLP-1 receptor, cAMP induction (AlphaScreen), Example 3.

Sequence of human GLP-1 receptor (GLP-1R) (P43220 24-463): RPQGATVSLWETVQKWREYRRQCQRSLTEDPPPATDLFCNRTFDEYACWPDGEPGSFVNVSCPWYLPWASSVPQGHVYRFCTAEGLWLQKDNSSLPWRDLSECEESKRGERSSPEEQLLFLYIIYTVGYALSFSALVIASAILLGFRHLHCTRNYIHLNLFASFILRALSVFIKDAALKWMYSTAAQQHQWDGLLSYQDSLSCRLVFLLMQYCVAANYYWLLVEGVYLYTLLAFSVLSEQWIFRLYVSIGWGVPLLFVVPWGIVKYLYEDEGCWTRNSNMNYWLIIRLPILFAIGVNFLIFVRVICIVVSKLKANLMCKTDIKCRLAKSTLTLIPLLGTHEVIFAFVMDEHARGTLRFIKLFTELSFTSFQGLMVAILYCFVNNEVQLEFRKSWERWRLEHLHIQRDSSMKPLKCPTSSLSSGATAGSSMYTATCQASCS

As a reminder, the pEC50 is the EC50 on a negative log10 scale, so that one unit is a factor of ten. In the case of `CC[C@H](C)[C@H](NC(=O)[C@H](Cc1ccccc1)NC(=O)[C@H](C)NC(=O)[C@H](CCCNC(=N)N)NC(=O)[C@H](CCC(N)=O)NC(=O)[C@H](C)NC(=O)[C@H](CCCCNC(=O)COCCOCCNC(=O)COCCOCCNC(=O)CN1CCN(C(=O)CCCCCCCCCCCCCCCCCCC(=O)O)CC1)NC(=O)[C@H](CCCCN)NC(=O)[C@H](CC(=O)O)NC(=O)[C@H](CC(C)C)NC(=O)[C@H](CCC(=O)O)NC(=O)[C@@H](NC(=O)[C@H](CO)NC(=O)[C@H](Cc1ccc(O)cc1)NC(=O)[C@H](CC(=O)O)NC(=O)[C@H](CO)NC(=O)[C@@H](NC(=O)[C@H](Cc1ccccc1)NC(=O)[C@@H](NC(=O)CNC(=O)[C@H](CCC(=O)O)NC(=O)C(C)(C)NC(=O)[C@@H](N)Cc1ccc(O)cc1)[C@@H](C)O)[C@@H](C)CC)[C@@H](C)CC)C(=O)N[C@@H](CCC(=O)O)C(=O)N[C@@H](Cc1c[nH]c2ccccc12)C(=O)N[C@@H](CC(C)C)C(=O)N[C@@H](CC(C)C)C(=O)N[C@@H](C)C(=O)N[C@@H](CCC(N)=O)C(=O)NCC(=O)N1CCC[C@H]1C(=O)N[C@@H](CO)C(=O)N[C@@H](CO)C(=O)NCC(=O)N[C@@H](C)C(=O)N1CCC[C@H]1C(=O)N1CCC[C@H]1C(=O)N1CCC[C@H]1C(=O)N[C@@H](CO)C(N)=O` [Compound 19] (H-Y[Aib]EGTFISDYSIELDKK([AEEA-AEEA-X1])AQRAFIEWLLAQGPSSGAPPPS-NH2), the pEC50 is 11.30 in assay [1], 11.22 on human GIP R and below 8.52 in assay [2].
In the same order, the values of `CC[C@H](C)[C@H](NC(=O)[C@H](CO)NC(=O)[C@H](Cc1ccc(O)cc1)NC(=O)[C@H](CC(=O)O)NC(=O)[C@H](CO)NC(=O)[C@@H](NC(=O)[C@H](Cc1ccccc1)NC(=O)[C@@H](NC(=O)CNC(=O)[C@H](CCC(=O)O)NC(=O)C(C)(C)NC(=O)[C@@H](N)Cc1ccc(O)cc1)[C@@H](C)O)[C@@H](C)CC)C(=O)N[C@@H](CCC(=O)O)C(=O)N[C@@H](CC(C)C)C(=O)N[C@@H](CC(=O)O)C(=O)N[C@@H](CCCCN)C(=O)N[C@@H](CCCCNC(=O)COCCOCCNC(=O)COCCOCCNC(=O)CN1CCN(C(=O)CCCCCCCCCCCCCCCCCCC(=O)O)CC1)C(=O)N[C@@H](C)C(=O)N[C@@H](CCC(N)=O)C(=O)N[C@@H](CCCNC(=N)N)C(=O)N[C@@H](C)C(=O)N[C@@H](Cc1ccccc1)C(=O)N[C@H](C(=O)N[C@@H](CCC(=O)O)C(=O)N[C@@H](Cc1c[nH]c2ccccc12)C(=O)N[C@@H](CC(C)C)C(=O)N[C@@H](CC(C)C)C(=O)N[C@@H](C)C(=O)N[C@@H](CCC(N)=O)C(=O)NCC(=O)N1CCC[C@H]1C(=O)N[C@@H](CO)C(=O)N[C@@H](CO)C(=O)NCC(=O)N[C@@H](C)C(=O)N1CCC[C@H]1C(=O)N1CCC[C@H]1C(=O)N1CCC[C@H]1C(=O)N[C@@H](CO)C(N)=O)C(C)C` [Compound 20] (H-Y[Aib]EGTFISDYSIELDKK([AEEA-AEEA-X1])AQRAFVEWLLAQGPSSGAPPPS-NH2) are 11.22, 11.15 and below 8.52.
In the same order, the values of `CC[C@H](C)[C@H](NC(=O)[C@H](CO)NC(=O)[C@H](Cc1ccc(O)cc1)NC(=O)[C@H](CC(=O)O)NC(=O)[C@H](CO)NC(=O)[C@@H](NC(=O)[C@H](Cc1ccccc1)NC(=O)[C@@H](NC(=O)CNC(=O)[C@H](CCC(=O)O)NC(=O)C(C)(C)NC(=O)[C@@H](N)Cc1ccc(O)cc1)[C@@H](C)O)[C@@H](C)CC)C(=O)N[C@@H](CCC(=O)O)C(=O)N[C@@H](CC(C)C)C(=O)N[C@@H](CC(=O)O)C(=O)N[C@@H](CCCCN)C(=O)N[C@@H](CCCCNC(=O)COCCOCCNC(=O)COCCOCCNC(=O)CC[C@H](NC(=O)CCCCCCCCCCCCCCCCCCC(=O)O)C(=O)O)C(=O)N[C@@H](C)C(=O)N[C@@H](CCC(N)=O)C(=O)N[C@@H](CCCCN)C(=O)N[C@@H](CCC(=O)O)C(=O)N[C@@H](Cc1ccccc1)C(=O)N[C@H](C(=O)N[C@@H](CCC(=O)O)C(=O)N[C@@H](Cc1c[nH]c2ccccc12)C(=O)N[C@@H](CC(C)C)C(=O)N[C@@H](CC(C)C)C(=O)N[C@@H](C)C(=O)N[C@@H](C)C(=O)NCC(=O)N1CCC[C@H]1C(=O)N[C@@H](CO)C(=O)N[C@@H](CO)C(=O)NCC(=O)N[C@@H](C)C(=O)N1CCC[C@H]1C(=O)N1CCC[C@H]1C(=O)N1CCC[C@H]1C(=O)N[C@@H](CO)C(N)=O)C(C)C` [Compound 22] (H-Y[Aib]EGTFISDYSIELDKK([AEEA-AEEA-γGlu-C20 diacid])AQKEFVEWLLAAGPSSGAPPPS-NH2) are 11.15, 11.30 and below 8.00.
Regarding `CC[C@H](C)[C@H](NC(=O)[C@H](CCCCN)NC(=O)[C@H](CC(=O)O)NC(=O)[C@H](CC(C)C)NC(=O)[C@H](CCC(=O)O)NC(=O)[C@@H](NC(=O)[C@H](CO)NC(=O)[C@H](Cc1ccc(O)cc1)NC(=O)[C@H](CC(=O)O)NC(=O)[C@H](CO)NC(=O)[C@@H](NC(=O)[C@H](Cc1ccccc1)NC(=O)[C@@H](NC(=O)CNC(=O)[C@H](CCC(=O)O)NC(=O)C(C)(C)NC(=O)[C@@H](N)Cc1ccc(O)cc1)[C@@H](C)O)[C@@H](C)CC)[C@@H](C)CC)C(=O)N[C@@H](C)C(=O)N[C@@H](CCC(N)=O)C(=O)N[C@@H](CCCNC(=N)N)C(=O)N[C@@H](C)C(=O)N[C@@H](Cc1ccccc1)C(=O)N[C@H](C(=O)N[C@@H](CCC(=O)O)C(=O)N[C@@H](Cc1c[nH]c2ccccc12)C(=O)N[C@@H](CC(C)C)C(=O)N[C@@H](CC(C)C)C(=O)N[C@@H](C)C(=O)NCC(=O)N1CCC[C@H]1C(=O)N[C@@H](CO)C(=O)N[C@@H](CO)C(=O)NCC(=O)N[C@@H](C)C(=O)N1CCC[C@H]1C(=O)N1CCC[C@H]1C(=O)N1CCC[C@H]1C(=O)N[C@@H](CO)C(=O)N[C@@H](CCCCNC(=O)COCCOCCNC(=O)COCCOCCNC(=O)CC[C@H](NC(=O)CCCCCCCCCCCCCCCCCCC(=O)O)C(=O)O)C(N)=O)[C@@H](C)CC` [Compound 23] (H-Y[Aib]EGTFISDYSIELDKIAQRAFIEWLLAGPSSGAPPPSK([AEEA-AEEA-γGlu-C20 diacid])-NH2), the pEC50 is 11.30 in assay [1], 11.00 on human GIP R and below 8.00 in assay [2].
Taken in the same sequence, the figures for `CC[C@H](C)[C@H](NC(=O)[C@H](CCCCN)NC(=O)[C@H](CC(=O)O)NC(=O)[C@H](CC(C)C)NC(=O)[C@H](CCC(=O)O)NC(=O)[C@@H](NC(=O)[C@H](CO)NC(=O)[C@H](Cc1ccc(O)cc1)NC(=O)[C@H](CC(=O)O)NC(=O)[C@H](CO)NC(=O)[C@@H](NC(=O)[C@H](Cc1ccccc1)NC(=O)[C@@H](NC(=O)CNC(=O)[C@H](CCC(=O)O)NC(=O)C(C)(C)NC(=O)[C@@H](N)Cc1ccc(O)cc1)[C@@H](C)O)[C@@H](C)CC)[C@@H](C)CC)C(=O)N[C@@H](C)C(=O)N[C@@H](CCC(N)=O)C(=O)N[C@@H](CCCCN)C(=O)N[C@@H](CCC(=O)O)C(=O)N[C@@H](Cc1ccccc1)C(=O)N[C@H](C(=O)N[C@@H](CCC(=O)O)C(=O)N[C@@H](Cc1c[nH]c2ccccc12)C(=O)N[C@@H](CC(C)C)C(=O)N[C@@H](CC(C)C)C(=O)N[C@@H](C)C(=O)NCC(=O)N1CCC[C@H]1C(=O)N[C@@H](CO)C(=O)N[C@@H](CO)C(=O)NCC(=O)N[C@@H](C)C(=O)N1CCC[C@H]1C(=O)N1CCC[C@H]1C(=O)N1CCC[C@H]1C(=O)N[C@@H](CO)C(=O)N[C@@H](CCCCNC(=O)COCCOCCNC(=O)COCCOCCNC(=O)CC[C@H](NC(=O)CCCCCCCCCCCCCCCCCCC(=O)O)C(=O)O)C(N)=O)[C@@H](C)CC` [Compound 24] (H-Y[Aib]EGTFISDYSIELDKIAQKEFIEWLLAGPSSGAPPPSK([AEEA-AEEA-γGlu-C20 diacid])-NH2) were 11.00, 11.10 and below 8.00.
In the same order, the values of `CC[C@H](C)[C@H](NC(=O)[C@H](CCCCN)NC(=O)[C@H](CC(=O)O)NC(=O)[C@H](CC(C)C)NC(=O)[C@H](CCC(=O)O)NC(=O)[C@@H](NC(=O)[C@H](CO)NC(=O)[C@H](Cc1ccc(O)cc1)NC(=O)[C@H](CC(=O)O)NC(=O)[C@H](CO)NC(=O)[C@@H](NC(=O)[C@H](Cc1ccccc1)NC(=O)[C@@H](NC(=O)CNC(=O)[C@H](CCC(=O)O)NC(=O)C(C)(C)NC(=O)[C@@H](N)Cc1ccc(O)cc1)[C@@H](C)O)[C@@H](C)CC)[C@@H](C)CC)C(=O)N[C@@H](C)C(=O)N[C@@H](C)C(=O)N[C@@H](CCC(N)=O)C(=O)N[C@@H](CC(=O)O)C(=O)N[C@@H](Cc1ccccc1)C(=O)N[C@H](C(=O)N[C@@H](CCC(=O)O)C(=O)N[C@@H](Cc1c[nH]c2ccccc12)C(=O)N[C@@H](CC(C)C)C(=O)N[C@@H](CC(C)C)C(=O)N[C@@H](C)C(=O)NCC(=O)N1CCC[C@H]1C(=O)N[C@@H](CO)C(=O)N[C@@H](CO)C(=O)NCC(=O)N[C@@H](C)C(=O)N1CCC[C@H]1C(=O)N1CCC[C@H]1C(=O)N1CCC[C@H]1C(=O)N[C@@H](CO)C(=O)N[C@@H](CCCCNC(=O)COCCOCCNC(=O)COCCOCCNC(=O)CC[C@H](NC(=O)CCCCCCCCCCCCCCCCCCC(=O)O)C(=O)O)C(N)=O)[C@@H](C)CC` [Compound 25] (H-Y[Aib]EGTFISDYSIELDKIAAQDFIEWLLAGPSSGAPPPSK([AEEA-AEEA-γGlu-C20 diacid])-NH2) are 11.10, 10.49 and below 7.00.
